Source: US12023345B2, “Compositions and methods for treating lysosomal disorders” (RUSH UNIVERSITY MEDICAL CENTER, priority 2014, dated 2024)

Columns and labels:
[1] = tested on: Tfeb promoter (pTFEB-Luc); assay: Tfeb promoter-driven luciferase reporter activity in mouse primary astrocytes; format: cell-based; conditions: p(WT)Tfeb-Luc, different doses of aspirin, 4 h
Text: Construction of Mouse Tfeb Promoter-driven Reporter Construct: Mouse genomic DNA isolated from primary mouse astrocytes was used as the template during PCR. The 5′ flanking sequence of the mouse TFEB (−916/+61) gene was isolated by PCR. Primers were designed from gene bank sequences. Tfeb: sense: 5′- acgcgt CCAGGAGCCAGGGACGGGGTACATCTC -3′ (SEQ ID NO.: 11); antisense: 5′- agatct AAGGAGAAACTGAGTCCGGGCAGAAGG -3′ (SEQ ID NO.: 12). The sense primer was tagged with an Mlu1 restriction enzyme site while the antisense primer was tagged with Bgl II. The PCR was performed using an Advantage-2 PCR kit (Clontech) according to the manufacturer's instruction. The resulting fragments were gel purified and ligated into the PGEM-TEasy vector (Promega). These fragments were further subcloned into the PGL-3 Enhancer vector after digestion with corresponding restriction enzymes and verification by sequencing ACGT Inc. DNA Sequencing Services. […]
Assay of Tfeb Promoter-driven Reporter Activity: Cells plated at 50-60% confluence in 12-well plates were cotransfected with 0.25 μg of pTFEB(WT)-Luc, pTFEB(Mu)-Luc and using Lipofectamine Plus (Invitrogen). […] Firefly luciferase activities were analyzed in cell extracts using the Luciferase Assay System kit (Promega) in a TD-20/20 Luminometer (Turner Designs) as described earlier (33, 34).

[2] = target: T1, PPARα (Mus musculus, UniProt P23204); assay: Electrophoretic mobility shift assay of DNA-binding activity of PPARα; format: cell-based; conditions: astrocytes, 5 μM aspirin, different min intervals
T1 construct: endogenous in cells; host or cells: primary mouse astrocytes (nuclear extracts)
T1 sequence (P23204 1-468): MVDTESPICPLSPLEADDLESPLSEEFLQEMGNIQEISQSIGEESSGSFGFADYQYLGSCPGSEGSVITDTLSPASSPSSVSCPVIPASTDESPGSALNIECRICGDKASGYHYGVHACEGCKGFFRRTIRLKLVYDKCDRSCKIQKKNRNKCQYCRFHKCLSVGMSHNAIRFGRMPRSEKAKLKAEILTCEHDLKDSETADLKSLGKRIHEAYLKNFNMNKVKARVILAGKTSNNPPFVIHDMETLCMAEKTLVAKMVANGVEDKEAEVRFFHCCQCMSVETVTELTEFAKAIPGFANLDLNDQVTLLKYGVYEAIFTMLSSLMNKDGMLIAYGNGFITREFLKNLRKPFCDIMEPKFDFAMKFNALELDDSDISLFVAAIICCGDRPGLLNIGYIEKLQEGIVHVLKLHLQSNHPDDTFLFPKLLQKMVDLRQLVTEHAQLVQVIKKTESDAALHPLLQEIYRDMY
T1 sequence (P28700 1-467 partner): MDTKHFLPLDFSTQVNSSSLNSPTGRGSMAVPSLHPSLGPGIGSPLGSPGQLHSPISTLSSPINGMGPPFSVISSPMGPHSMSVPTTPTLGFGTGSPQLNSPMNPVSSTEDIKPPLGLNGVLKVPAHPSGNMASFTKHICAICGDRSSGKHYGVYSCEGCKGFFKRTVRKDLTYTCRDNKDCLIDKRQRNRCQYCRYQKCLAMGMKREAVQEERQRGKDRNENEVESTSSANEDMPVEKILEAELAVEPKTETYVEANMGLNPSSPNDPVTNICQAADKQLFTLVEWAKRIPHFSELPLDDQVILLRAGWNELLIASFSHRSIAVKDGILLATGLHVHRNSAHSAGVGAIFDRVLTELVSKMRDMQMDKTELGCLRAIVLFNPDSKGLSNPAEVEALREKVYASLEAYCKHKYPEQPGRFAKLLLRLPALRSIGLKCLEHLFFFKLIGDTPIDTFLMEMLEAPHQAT
Procedure: FIG. 14(A)-(B) illustrates activation of PPARα by aspirin in primary mouse astrocytes. 14(A) Cells were treated with 5 μM aspirin for different min intervals followed by isolation of nuclear extracts and electrophoretic mobility shift assay for monitoring DNA-binding activity of PPARα using PPARα-binding site of the Tfeb promoter as a probe. 14(B) Astrocytes isolated from wild type, PPARα (−/−) and PPARβ (−/−) mice were transfected with PPAR luciferase reporter (PPRE-x3-TK-luc) plasmid and after 24 h of transfection, cells were stimulated with different doses of aspirin. After 4 h, firefly luciferase activity was measured in total cell extracts. Results are mean +SD of three different experiments. ^ap<0.001 vs control.

Compound: CC(=O)Oc1ccccc1C(=O)O [aspirin]
- Tfeb promoter driven luciferase activity [1]: induced Tfeb promoter driven luciferase activity
- DNA-binding activity of PPARα (EMSA) [2]: time-dependent increase in PPARα activation
